{
  "source": "patent US20060019855A1",
  "about": "“Composition for a bactericidal, disinfecting, and cleansing foam agent” (priority 2004, published 2006)",
  "assay_in_all_cases": "Antibacterial effect test",
  "key": {"[1]": {"system": "Staphylococcus aureus ATCC25923", "format": "cell-based", "conditions": "for antibacterial effects (in words): S. aureus", "procedure": "(§1) Antibacterial Effect Test\n(§2) Composition of Example 1: The composition of Example 1 was filled in a pump foamer (manufactured by DAIWA CAN COMPANY).\n(§3) Ethanol gel: A hand cleansing gel made by […] CO. LTD. (ethanol content: 70%, formulated with aloe extract).\nStaphylococcus aureus ATCC25923\nNutrient Agar (Difco) was employed for S. aureus ATCC25923.\n(§4) 1) The respective strains were incubated overnight in TSB at 37° C. The bacterial suspensions were diluted with physiologic saline to have a concentration of approximately 10^4 CFU/ml each.\n(§5) 2) Next, 4.5 g each of the test samples were added to dishes (Composition of Example 1 and Control composition were added in a foamed state.). Thereafter, 0.5 ml each of the bacterial suspensions obtained in the process 1) was inoculated thereinto and mixed well. For every combination (12 combinations in total) of the four test samples and the three bacterial suspensions, two sample dishes were prepared in this manner.\n(§6) 3) Regarding the first ones of these sample dishes, the number of bacteria was counted immediately after inoculation of the bacterial suspensions, and also after one and two hours of incubation at 37° C. For incubation, the dishes were put in an incubator, with the lids slightly open. To count the number of bacteria of each strain, two agar media were respectively inoculated with 0.1 ml of the bacterial suspension and incubated for 24 hours at 37° C. Later, the number of colonies in both agar media was counted and averaged.\n(§7) 4) The second ones of the sample dishes prepared in the process 2) were incubated for two hours at 37° C. after inoculation of the bacterial suspensions. Thereafter, 0.5 ml each of the corresponding bacterial suspensions was again inoculated thereinto and mixed well. The number of bacteria was counted immediately after reinoculation of the bacterial suspensions, and also after one and two hours of incubation at 37° C., in the same manner as in the process 3).\n(§8) In Tables 2-4, “B” indicates the theoretical number of bacteria in the mixtures of the bacterial suspensions and the test samples. The symbol “*” indicates reinoculation."}, "Escherichia coli FMK1254": {"system": "Escherichia coli FMK1254", "format": "cell-based", "conditions": "for antibacterial effects (in words): E. coli", "procedure": "as §1, §2, §3\n(§9) MacConkey Agar (Difco) was employed for E. coli FMK1254 and Pathogenic E. coli 0157:H7 SAKAI.\nas §4, §5, §6, §7, §8"}, "[2]": {"system": "Pathogenic E. coli O157:H7 Sakai", "format": "cell-based, Escherichia coli", "conditions": "for number of bacteria: Pathogenic E. coli O157:H7 Sakai; for antibacterial effects (in words): pathogenic E. coli", "procedure": "as §1, §2\nEthanol gel: A hand cleansing gel made by FUMAKILLA CO. LTD. (ethanol content: 70%, formulated with aloe extract).\nPathogenic Escherichia coli 0157:H7 Sakai\nas §9, §4, §5, §6, §7, §8"}, "[3]": {"conditions": "after two hours of reinoculation"}},
  "data": [
    {"smiles": "CCO", "note": "[70% Ethanol, Ethanol]", "values": [
      {"measurement": "number of bacteria", "setting": "[1]; S. aureus ATCC25923, 1 hour at 37° C. after inoculation", "result": "≦9 CFU/ml"},
      {"measurement": "number of bacteria", "setting": "[1]; S. aureus ATCC25923, 1 hour at 37° C. after reinoculation", "result": 75, "unit": "CFU/ml"},
      {"measurement": "number of bacteria", "setting": "[1]; S. aureus ATCC25923, 2 hours at 37° C. after inoculation", "result": "≦9 CFU/ml"},
      {"measurement": "number of bacteria", "setting": "[1]; S. aureus ATCC25923, 2 hours at 37° C. after reinoculation", "result": 45, "unit": "CFU/ml"},
      {"measurement": "number of bacteria", "setting": "[1]; S. aureus ATCC25923, immediately after inoculation (0)", "result": "≦9 CFU/ml"},
      {"measurement": "number of bacteria", "setting": "[1]; S. aureus ATCC25923, immediately after reinoculation (0*)", "result": 180, "unit": "CFU/ml"},
      {"measurement": "antibacterial effects (in words)", "setting": "[1]; after two hours of inoculation", "result": "excellent"},
      {"measurement": "antibacterial effects (in words)", "setting": "[1]; [3]", "result": "not sufficient"},
      {"measurement": "number of bacteria", "setting": "Escherichia coli FMK1254; E. coli FMK1254, 1 hour at 37° C. after reinoculation", "result": 4095, "unit": "CFU/ml"},
      {"measurement": "number of bacteria", "setting": "Escherichia coli FMK1254; E. coli FMK1254, 1 hour of incubation at 37° C. after inoculation", "result": "≦9 CFU/ml"},
      {"measurement": "number of bacteria", "setting": "Escherichia coli FMK1254; E. coli FMK1254, 2 hours at 37° C. after reinoculation", "result": 2195, "unit": "CFU/ml"},
      {"measurement": "number of bacteria", "setting": "Escherichia coli FMK1254; E. coli FMK1254, 2 hours of incubation at 37° C. after inoculation", "result": "≦9 CFU/ml"},
      {"measurement": "number of bacteria", "setting": "Escherichia coli FMK1254; E. coli FMK1254, immediately after inoculation (0)", "result": "≦9 CFU/ml"},
      {"measurement": "number of bacteria", "setting": "Escherichia coli FMK1254; E. coli FMK1254, immediately after reinoculation (0*)", "result": 2280, "unit": "CFU/ml"},
      {"measurement": "antibacterial effects (in words)", "setting": "Escherichia coli FMK1254; after two hours of inoculation", "result": "excellent"},
      {"measurement": "antibacterial effects (in words)", "setting": "Escherichia coli FMK1254; [3]", "result": "totally lost"},
      {"measurement": "number of bacteria", "setting": "[2]; 1 hour at 37° C. after inoculation", "result": "≦9 CFU/ml"},
      {"measurement": "number of bacteria", "setting": "[2]; 1 hour at 37° C. after reinoculation", "result": "≧30000 CFU/ml"},
      {"measurement": "number of bacteria", "setting": "[2]; 2 hours at 37° C. after inoculation", "result": "≦9 CFU/ml"},
      {"measurement": "number of bacteria", "setting": "[2]; 2 hours at 37° C. after reinoculation", "result": "≧30000 CFU/ml"},
      {"measurement": "number of bacteria", "setting": "[2]; immediately after inoculation (0)", "result": "≦9 CFU/ml"},
      {"measurement": "number of bacteria", "setting": "[2]; immediately after reinoculation (0*)", "result": "≧30000 CFU/ml"},
      {"measurement": "antibacterial effects (in words)", "setting": "[2]; after two hours of inoculation", "result": "excellent"},
      {"measurement": "antibacterial effects (in words)", "setting": "[2]; [3]", "result": "totally lost"}
    ]}
  ]
}
